One test deals with CCRF-CEM. Put plainly: NCI cytotoxicity screen, Leukemia panel. To be noted: Homo sapiens, single dose 10 µM, negative = lethal, read-out: Percent growth inhibition. The test is classed as cell-based. The procedure: (§1) Cytotoxicity was performed at National Cancer Institute (NCI), Bethesda, USA as per their protocols.
The next test concerns HL-60(TB). Description: NCI cytotoxicity screen, Leukemia panel. The test is classed as cell-based. The following applies: Homo sapiens, HL-60, HL-60(TB); single dose 10 µM; negative = lethal; read-out: Percent growth inhibition. The method, then:
as §1

In another test the test system is K-562. Description: NCI cytotoxicity screen, Leukemia panel. The following applies: Homo sapiens, K562; K-562; single dose 10 µM; negative = lethal; read-out: Percent growth inhibition. The test is classed as cell-based. The procedure:
as §1

For a further test, the system named is MOLT-4. Put plainly: NCI cytotoxicity screen, Leukemia panel. The following applies: Homo sapiens, MOLT-4, MOLT-4; single dose 10 µM; negative = lethal; read-out: Percent growth inhibition. The test is classed as cell-based. The procedure: as §1
A further test relates to RPMI-8226. Description: NCI cytotoxicity screen, Leukemia panel. The following applies: Homo sapiens; RPMI-8226; single dose 10 µM; negative = lethal; read-out: Percent growth inhibition. The test is classed as cell-based. The procedure: as §1
The next test has as its system SR. Description: NCI cytotoxicity screen, Leukemia panel. The test is classed as cell-based. The following applies: Homo sapiens, single dose 10 µM, negative = lethal, read-out: Percent growth inhibition. The method, then:
as §1

A further test concerns NCI-522. Description: NCI cytotoxicity screen, Non-Small Cell Lung Cancer panel. The following applies: Homo sapiens; NCI-522; single dose 10 µM; negative = lethal; read-out: Percent growth inhibition. The test is classed as cell-based, human. The procedure:
as §1

A further test deals with NCI-H226. Described as above. The test is classed as cell-based, human. To be noted: Homo sapiens, single dose 10 µM, negative = lethal, read-out: Percent growth inhibition. The method, then:
as §1

The subject of a further test is NCI-H23. The description is as above. The test is classed as cell-based, human. To be noted: Homo sapiens, single dose 10 µM, negative = lethal, read-out: Percent growth inhibition. The method, then: as §1
The test system of the next test is NCI-H322M. The test is described as above. The test is classed as cell-based, human. To be noted: Homo sapiens, single dose 10 µM, negative = lethal, read-out: Percent growth inhibition. The procedure: as §1
The test system of a further test is HCT-116. Put plainly: NCI cytotoxicity screen, Colon Cancer panel. The test is classed as cell-based. To be noted: Homo sapiens, single dose 10 µM, negative = lethal, read-out: Percent growth inhibition. The method, then: as §1
The test system of another test is HT29. Description: NCI cytotoxicity screen, Colon Cancer panel. The test is classed as cell-based. To be noted: Homo sapiens, HT-29; HT29; single dose 10 µM; negative = lethal; read-out: Percent growth inhibition. The procedure:
as §1

A further test relates to BT-549. Description: NCI cytotoxicity screen, Breast Cancer panel. The following applies: Homo sapiens, single dose 10 µM, negative = lethal, read-out: Percent growth inhibition. The test is classed as cell-based. The procedure:
as §1

Another test has as its system HS 578 T. Put plainly: NCI cytotoxicity screen, Breast Cancer panel. The test is classed as cell-based. The following applies: Homo sapiens; HS 578T; single dose 10 µM; negative = lethal; read-out: Percent growth inhibition. The method, then: as §1
A further test has as its system MCF7. Description: NCI cytotoxicity screen, Breast Cancer panel. The test is classed as cell-based. To be noted: Homo sapiens, single dose 10 µM, negative = lethal, read-out: Percent growth inhibition. The procedure:
as §1

A further test concerns MDA-MB-231/ATCC. Description: NCI cytotoxicity screen, Breast Cancer panel. The test is classed as cell-based. The following applies: Homo sapiens, MDA-MB-231, read-out: Percent growth inhibition. The procedure:
as §1

In the next test the test system is MDA-MB-468. Put plainly: NCI cytotoxicity screen, Breast Cancer panel. To be noted: Homo sapiens, single dose 10 µM, negative = lethal, read-out: Percent growth inhibition. The test is classed as cell-based. The procedure: as §1
Another test concerns T-47D. Description: NCI cytotoxicity screen, Breast Cancer panel. The following applies: Homo sapiens, T47D, T-47D; single dose 10 µM; negative = lethal; read-out: Percent growth inhibition. The test is classed as cell-based. The procedure: as §1

For the compound `c1ccc(-c2cn3ccnc3c(-c3ccc4c(c3)ncn4C3CCCCC3)n2)cc1` [Compound 9, 8-(1-cyclohexyl-1H-benzo[d]imidazol-5-yl)-6-phenylimidazo[1,2-a]pyrazine], the inhibition at 10 µM turned out to be 11.7% in the test on CCRF-CEM; 19.4% in the test on HL-60(TB); 31.1% in the test with K-562; 39.7% in the test on MOLT-4; 18.3% in the test with RPMI-8226; 44.6% in the test on SR. Moreover, the inhibition at 10 µM in the test with NCI-522 was 16.1%; in the test on NCI-H226, under 1%; with NCI-H23, under 1%; in the test on NCI-H322M it was 2.91%; in the test on HCT-116, 3.81%; in the test on HT29, 9.21%. Further, the inhibition at 10 µM is 0.43% with BT-549; under 1% with HS 578 T; 15.8% in the test with MCF7; 6.64% with MDA-MB-231/ATCC; under 1% in the test on MDA-MB-468; 25.5% with T-47D.

Turning to `COc1ccc(-c2cn3ccnc3c(-c3ccc4c(c3)ncn4C3CCCCC3)n2)cc1` [Compound 10, 8-(1-cyclohexyl-1H-benzo[d]imidazol-5-yl)-6-(4-methoxyphenyl)imidazo[1,2-a]pyrazine], the inhibition at 10 µM in the test on CCRF-CEM is 1.19%; in the test on HL-60(TB) it was 23.3%; in the test on K-562, 29.2%; in the test on MOLT-4, 34.2%; in the test with RPMI-8226, 14.7%; with SR, 29.7%. In addition, the inhibition at 10 µM in the test on NCI-522 is 18.5%; in the test on NCI-H226 it was under 1%; with NCI-H23, under 1%; in the test on NCI-H322M it was under 1%; with HCT-116, 18.6%; with HT29, under 1%. The inhibition at 10 µM is 8.55% in the test with BT-549; 5.69% in the test with HS 578 T; 19.7% with MCF7; under 1% in the test with MDA-MB-231/ATCC; under 1% in the test on MDA-MB-468; 46.2% in the test with T-47D.

Take `c1ccc2c(-c3cn4ccnc4c(-c4ccc5c(c4)ncn5C4CCCCC4)n3)cccc2c1` [Compound 12, 8-(1-cyclohexyl-1H-benzo[d]imidazol-5-yl)-6-(naphthalen-1-yl)imidazo[1,2-a]pyrazine]: the inhibition at 10 µM in the test on CCRF-CEM was 27.2%; in the test on HL-60(TB), about 50%; with K-562, 38%; in the test with MOLT-4 it was about 50%; with RPMI-8226 it was 38.2%; with SR, 10.9%. For the same compound, the inhibition at 10 µM with NCI-522 turned out to be 33%; with NCI-H226, 17.9%; with NCI-H23 it was 9.02%; with NCI-H322M, 8.38%; with HCT-116, 23.7%; in the test on HT29, 16.5%. Besides, the inhibition at 10 µM in the test with BT-549 came to 1.57%; with HS 578 T it was 4.25%; with MCF7, 35.7%; in the test with MDA-MB-231/ATCC it was 18.2%; in the test with MDA-MB-468, 5.23%; in the test with T-47D, 22%.

Take `Fc1ccc(-c2cn3ccnc3c(-c3ccc4c(c3)ncn4C3CCCCC3)n2)cc1` [Compound 13, 8-(1-cyclohexyl-1H-benzo[d]imidazol-5-yl)-6-(4-fluorophenyl)imidazo[1,2-a]pyrazine]: the inhibition at 10 µM is under 1% in the test on CCRF-CEM; 5.28% with HL-60(TB); 13.2% with K-562; 11.4% in the test on MOLT-4; 6.16% in the test on RPMI-8226; 20.8% in the test on SR. In addition, the inhibition at 10 µM was 22.6% in the test with NCI-522; 7.09% in the test with NCI-H226; 4.49% with NCI-H23; under 1% in the test with NCI-H322M; 6.58% in the test on HCT-116; 8.33% in the test with HT29. Besides, the inhibition at 10 µM is under 1% with BT-549; under 1% with HS 578 T; 9.59% in the test with MCF7; under 1% with MDA-MB-231/ATCC; under 1% with MDA-MB-468; 10.1% with T-47D.

With `c1cn2cc(-c3ccsc3)nc(-c3ccc4c(c3)ncn4C3CCCCC3)c2n1` [Compound 14, 8-(1-cyclohexyl-1H-benzo[d]imidazol-5-yl)-6-(thiophen-3-yl)imidazo[1,2-a]pyrazine], the inhibition at 10 µM in the test with CCRF-CEM is 1.1%; in the test on HL-60(TB) it was 2.65%; in the test with K-562 it was 9.6%; in the test with MOLT-4 it was 14.3%; in the test on RPMI-8226, 20.8%; in the test with SR, 23.6%. In addition, the inhibition at 10 µM in the test with NCI-522 is 10.4%; in the test with NCI-H226, under 1%; in the test on NCI-H23 it was 8.6%; in the test on NCI-H322M it was 1.19%; in the test with HCT-116, 15.8%; in the test on HT29, 9.2%. For the same compound, the inhibition at 10 µM is 4.68% with BT-549; 6.34% in the test on HS 578 T; 12% in the test with MCF7; 7.65% with MDA-MB-231/ATCC; 0.73% with MDA-MB-468; over 50% in the test with T-47D.

For `c1csc(-c2cn3ccnc3c(-c3ccc4c(c3)ncn4C3CCCCC3)n2)c1` [Compound 22, 8-(1-cyclohexyl-1H-benzo[d]imidazol-5-yl)-6-(thiophen-2-yl)imidazo[1,2-a]pyrazine], the inhibition at 10 µM in the test with CCRF-CEM was under 1%; with HL-60(TB) it was 0.87%; in the test with K-562, under 1%; with MOLT-4, 12.4%; with RPMI-8226 it was under 1%; in the test on SR, 15%. Moreover, the inhibition at 10 µM is 14.6% with NCI-522; under 1% in the test with NCI-H226; 5.56% in the test on NCI-H23; 0.45% with NCI-H322M; under 1% with HCT-116; under 1% in the test with HT29. Also, the inhibition at 10 µM with BT-549 was under 1%; in the test on HS 578 T it was under 1%; with MCF7, 34%; with MDA-MB-231/ATCC, 7.47%; in the test on MDA-MB-468, 28.3%; in the test with T-47D it was 37.3%.

With `c1cn2cc(-c3ccc4c(c3)ncn4C3CCCCC3)nc(-c3ccc4c(c3)ncn4C3CCCCC3)c2n1` [Compound 30, 6,8-bis(1-cyclohexyl-1H-benzo[d]imidazol-5-yl)imidazo[1,2-a]pyrazine], the inhibition at 10 µM with CCRF-CEM worked out at 35.1%; in the test on HL-60(TB) it was 32.9%; with K-562, 47.2%; in the test with MOLT-4 it was 43.6%; with RPMI-8226, 52.2%; in the test on SR, 17.1%. In addition, the inhibition at 10 µM in the test with NCI-522 was 17.7%; in the test on NCI-H226, 13.1%; in the test on NCI-H23, 4.61%; with NCI-H322M it was under 1%; in the test with HCT-116, 15.9%; with HT29 it was 28.1%. Also, the inhibition at 10 µM in the test with BT-549 was 5.9%; with HS 578 T it was 18.9%; in the test on MCF7, 23.9%; in the test with MDA-MB-231/ATCC it was 16.8%; in the test on MDA-MB-468 it was 3.28%; in the test on T-47D, 34.7%.

As a reminder, the inhibition is the drop in the measured response relative to a control, in per cent.

The values above are taken from PMC7162861, “Synthesis, cytotoxicity, pharmacokinetic profile, binding with DNA and BSA of new imidazo[1,2-a]pyrazine-benzo[d]imidazol-5-yl hybrids” (Scientific Reports, 2020).
